Laboratory results as given in patent publication US20250333397A1 (REMIX THERAPEUTICS INC., priority 2021, published 2025).
Like-named read-outs stand apart in the source and are kept apart here.

How the values were obtained:
Type in all cases: cell-based, human
HTT mRNA = assay: RT-qPCR splicing assay, HTT canonical (CJ) and alternative (AJ) junction mRNA; conditions: for AC50: read-out: HTT AJ (AC50, increase in AJ mRNA)
Method in brief: (§1)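 A673 (DMEM/10% FBS) or K562 (IMDM/10% FBS) cells treated 24 h at 37 °C with 11-point 3-fold dilutions, top 10 uM final, DMSO ≤0.25%. Lysates read by one-step RT-qPCR for CJ and AJ isoforms, normalized to GAPDH, GUSB or PPIA. ΔΔCt vs DMSO gives RQ via 2^(-ΔΔCt).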

MYB mRNA = assay: RT-qPCR splicing assay, MYB canonical (CJ) and alternative (AJ) junction mRNA; conditions: for AC50: read-out: MYB AJ (AC50, increase in AJ mRNA)
Method in brief: as §1

SMN2 mRNA = assay: RT-qPCR splicing assay panel, SMN2 canonical junction (CJ) mRNA; conditions: canonical junction (CJ) mRNA, RT-qPCR panel, Table 4A, read-out: SMN2, decrease in CJ mRNA levels, IC50
Method in brief: as §1

Target C mRNA = assay: RT-qPCR splicing assay panel, Target C canonical junction (CJ) mRNA; conditions: canonical junction (CJ) mRNA, RT-qPCR panel, Table 4A, read-out: Target C, decrease in CJ mRNA levels, IC50
Method in brief: as §1

[1] = Homo sapiens, 24 h, Table 3A, A673 or K562 cells, 24 h treatment
[2] = Homo sapiens, 24 h, Table 3A, A673 or K562 cells, 24 h treatment, read-out: HTT CJ (IC50, decrease in CJ mRNA)
[3] = Homo sapiens, canonical junction (CJ) mRNA, RT-qPCR panel, Table 4A, read-out: HTT, decrease in CJ mRNA levels, IC50
[4] = Homo sapiens, 24 h, Table 3A, A673 or K562 cells, 24 h treatment, read-out: MYB CJ (IC50, decrease in CJ mRNA)
[5] = Homo sapiens, canonical junction (CJ) mRNA, RT-qPCR panel, Table 4A, read-out: MYB, decrease in CJ mRNA levels, IC50
[6] = Table 3A, A673 or K562 cells, 24 h treatment

Structure (SMILES) | AC50 (HTT mRNA; [1]) [nM] | IC50 (HTT mRNA; [2]) [nM] | IC50 (HTT mRNA; [3]) [nM] | AC50 (MYB mRNA; [1]) [nM] | IC50 (MYB mRNA; [4]) [nM] | IC50 (MYB mRNA; [5]) [nM] | IC50 (SMN2 mRNA; Homo sapiens) [nM] | IC50 (Target C mRNA; Homo sapiens) [nM] | AC50 (HTT mRNA; [6]) [nM] | IC50 (HTT mRNA; Table 3A, A673 or K562 cells, 24 h treatment, read-out: HTT CJ (IC50, decrease in CJ mRNA)) [nM] | IC50 (HTT mRNA; canonical junction (CJ) mRNA, RT-qPCR panel, Table 4A, read-out: HTT, decrease in CJ mRNA levels, IC50) [nM] | AC50 (MYB mRNA; [6]) [nM] | IC50 (MYB mRNA; Table 3A, A673 or K562 cells, 24 h treatment, read-out: MYB CJ (IC50, decrease in CJ mRNA)) [nM] | IC50 (MYB mRNA; canonical junction (CJ) mRNA, RT-qPCR panel, Table 4A, read-out: MYB, decrease in CJ mRNA levels, IC50) [nM] | IC50 (SMN2 mRNA) [nM] | IC50 (Target C mRNA) [nM]
Oc1cc(-c2cnc(C3CC3)s2)c(F)cc1-c1ccc(N2CCC(NC3CCC3)C2)nn1 (stereo not drawn) [Compound 444] | > 10000 | > 10000 | > 10000 | > 10000 | > 10000 | > 10000 | 1000 to 10000 | > 10000 |  |  |  |  |  |  |  | 
COc1cc(-c2ccc(-c3ccc(N4CC[C@@](C)(NCC5CC5)C4)nn3)c(O)c2)ncn1 [Compound 375, 2-{6-[(3R)-3-[(cyclopropylmethyl)amino]-3-methylpyrrolidin-1-yl]pyridazin-3-yl}-5-(6-methoxypyrimidin-4-yl)phenol] | 100 to 1000 | < 100 | < 100 | 1000 to 10000 | 100 to 1000 | 100 to 1000 | < 100 | 100 to 1000 |  |  |  |  |  |  |  | 
COc1cc(-c2ccc(-c3ccc(N4CCC(N[C@H]5C[C@@H](OC)C5)C4)nn3)c(O)c2)cnn1 (stereo partly drawn) [Compound 404, 5-(6-methoxypyridazin-4-yl)-2-[6-(3-{[(1s,3s)-3-methoxycyclobutyl]amino}pyrrolidin-1-yl)pyridazin-3-yl]phenol] | 100 to 1000 | < 100 | < 100 | 1000 to 10000 | 100 to 1000 | 100 to 1000 | < 100 | 100 to 1000 |  |  |  |  |  |  |  | 
COc1cc(-c2cc(O)c(-c3ccc(N4CC[C@H](NC(C)(C)C)C4)nn3)cc2F)ncn1 [Compound 397] | 100 to 1000 | 100 to 1000 | 100 to 1000 | 1000 to 10000 | 100 to 1000 | 100 to 1000 | 100 to 1000 | 100 to 1000 |  |  |  |  |  |  |  | 
COc1cc(-c2cc(O)c(-c3ccc(N4CC[C@](C)(NCC5CC5)C4)nn3)cc2F)cnn1 [Compound 452, 2-{6-[(3S)-3-[(cyclopropylmethyl)amino]-3-methylpyrrolidin-1-yl]pyridazin-3-yl}-4-fluoro-5-(6-methoxypyridazin-4-yl)phenol] |  |  | < 100 |  |  | 100 to 1000 | 100 to 1000 | 100 to 1000 |  |  |  |  |  |  |  | 
COc1cc(-c2ccc(-c3ccc(N4CC[C@H](NC5(C)CCC5)C4)nn3)c(O)c2)ncn1 [Compound 384, 5-(6-methoxypyrimidin-4-yl)-2-{6-[(3S)-3-[(1-methylcyclobutyl)amino]pyrrolidin-1-yl]pyridazin-3-yl}phenol] | < 100 | < 100 | < 100 | 100 to 1000 | 100 to 1000 | 100 to 1000 | < 100 | 100 to 1000 |  |  |  |  |  |  |  | 
CCN(C1CCC1)[C@H]1CCN(c2ccc(-c3ccc(-c4cnnc(OC)c4)cc3O)nn2)C1 [Compound 276] | 100 to 1000 | < 100 | < 100 | 100 to 1000 | 100 to 1000 | 100 to 1000 | < 100 | 100 to 1000 |  |  |  |  |  |  |  | 
Cn1ncc(-c2ccc(-c3ccc(N4CC[C@@H](NC(C)(C)C)C4)nn3)c(O)c2)cc1=O [Compound 297, 5-(4-{6-[(3R)-3-(tert-butylamino)pyrrolidin-1-yl]pyridazin-3-yl}-3-hydroxyphenyl)-2-methylpyridazin-3-one] | < 100 | < 100 | < 100 | < 100 | < 100 | < 100 | < 100 | < 100 |  |  |  |  |  |  |  | 
COc1cc(-c2ccc(-c3ccc(N4CC[C@H](N(C)C(C)(C)C)C4)nn3)c(O)c2)cnn1 [Compound 337, 2-{6-[(3S)-3-[tert-butyl(methyl)amino]pyrrolidin-1-yl]pyridazin-3-yl}-5-(6-methoxypyridazin-4-yl)phenol] | < 100 | < 100 | < 100 | < 100 | < 100 | < 100 | < 100 | < 100 |  |  |  |  |  |  |  | 
COc1cc(-c2ccc(-c3ccc(N4CC[C@@H](NC5(C)CC5)C4)nn3)c(O)c2)cnn1 [Compound 266, 5-(6-methoxypyridazin-4-yl)-2-{6-[(3R)-3-[(1-methylcyclopropyl)amino]pyrrolidin-1-yl]pyridazin-3-yl}phenol] |  |  |  |  |  |  |  |  | < 100 | < 100 | < 100 | 100 to 1000 | 100 to 1000 | 100 to 1000 | < 100 | 100 to 1000
Oc1cc(-c2ccc(-c3ccc(N4CC[C@@H](NC5CCC5)C4)nn3)c(O)c2)cnn1 [Compound 419, 5-(4-{6-[(3R)-3-(cyclobutylamino)pyrrolidin-1-yl]pyridazin-3-yl}-3-hydroxyphenyl)pyridazin-3-ol] | 1000 to 10000 | 100 to 1000 | 100 to 1000 | > 10000 | 1000 to 10000 | 1000 to 10000 | 100 to 1000 | 1000 to 10000 |  |  |  |  |  |  |  | 
COc1cncc(-c2ccc(-c3ccc(N4CC[C@H](NC5CCC5)C4)nn3)c(O)c2)c1 [Compound 304] | 1000 to 10000 | 1000 to 10000 | 1000 to 10000 | 1000 to 10000 | 1000 to 10000 | 1000 to 10000 | 1000 to 10000 | 1000 to 10000 |  |  |  |  |  |  |  | 
Cc1ncc(-c2ccc(-c3ccc(N4CC[C@](C)(NC5CCC5)C4)nn3)c(O)c2)s1 [Compound 357] | < 100 | < 100 | < 100 | 100 to 1000 | 100 to 1000 | 100 to 1000 | < 100 | < 100 |  |  |  |  |  |  |  | 
Cc1nc2c(F)cc(-c3ccc(-c4ccc(N5CCC(NC6CCC6)C5)nn4)c(O)c3)cc2o1 (stereo not drawn) [Compound 326] | 100 to 1000 | < 100 | < 100 | 100 to 1000 | 100 to 1000 | 100 to 1000 | < 100 | 100 to 1000 |  |  |  |  |  |  |  | 
COc1cc(-c2cc(O)c(-c3ccc(OC4CC(C)(C)NC(C)(C)C4)nn3)cc2F)cnn1 [Compound 272] | < 100 | < 100 | < 100 | 100 to 1000 | 100 to 1000 | 100 to 1000 | < 100 | 100 to 1000 |  |  |  |  |  |  |  | 
Cc1ncc(-c2cc(O)c(-c3ccc(N4CC[C@H](CNC5CCC5)C4)nn3)cc2F)s1 [Compound 454] |  |  | < 100 |  |  | 1000 to 10000 | < 100 | 100 to 1000 |  |  |  |  |  |  |  | 
